Where a SMILES comes first, the peptide text is derived from it.
What was measured:
Format in all cases: cell-based
[1] = tested on: Pseudomonas aeruginosa ATCC27853; assay: MIC determination (broth microdilution); settings: MHB, 5 × 10^5 CFU/mL, peptide 0.625 to 40 μg/mL, 37 °C, 18 h, OD 630 nm
Protocol: (§1) The antimicrobial activities of the peptides were tested against S. aureus ATCC29213, E. faecalis ATCC29212, E. coli ATCC25922, K. pneumoniae ATCC700603, P. aeruginosa ATCC27853 and A. baumannii ATCC19606. All these strains were purchased from the China Center of Type Culture Collection (CCTCC).
(§2) The antimicrobial activities of the peptides were determined as previously described. Briefly, the bacteria were incubated at 37 °C and 150 rpm until the log phase of growth. Next, the bacteria were diluted with Mueller-Hinton broth (MHB, Oxoid, UK) and prepared in a clear round-bottom polypropylene 96-well microtiter plate to achieve a final concentration of 5 × 10^5 colony-forming unit (CFU)/mL. Twofold serial dilutions of the peptides were added into each well with the concentrations ranging from 0.625 to 40 μg/mL. The mixed peptides and cells were cultured at 37 °C and 150 rpm for 18 h, and the optical density (OD) was measured at 630 nm. The minimum inhibitory concentration was defined as the lowest peptide concentration with no detectable bacterial growth.

[2] = tested on: Acinetobacter baumannii ATCC19606; assay: MIC determination (broth microdilution); settings: MHB, 5 × 10^5 CFU/mL, peptide 0.625 to 40 μg/mL, 37 °C, 18 h, OD 630 nm
Protocol: as §1, §2

[3] = tested on: Staphylococcus aureus ATCC29213; assay: MIC determination (broth microdilution); settings: MHB, 5 × 10^5 CFU/mL, peptide 0.625 to 40 μg/mL, 37 °C, 18 h, OD 630 nm
Protocol: as §1, §2

[4] = tested on: Klebsiella pneumoniae ATCC700603; assay: MIC determination (broth microdilution); settings: MHB, 5 × 10^5 CFU/mL, peptide 0.625 to 40 μg/mL, 37 °C, 18 h, OD 630 nm
Protocol: as §1, §2

[5] = tested on: Escherichia coli ATCC25922; assay: MIC determination (broth microdilution); settings: MHB, 5 × 10^5 CFU/mL, peptide 0.625 to 40 μg/mL, 37 °C, 18 h, OD 630 nm
Protocol: as §1, §2

[6] = tested on: Enterococcus faecalis ATCC29212; assay: MIC determination (broth microdilution); settings: MHB, 5 × 10^5 CFU/mL, peptide 0.625 to 40 μg/mL, 37 °C, 18 h, OD 630 nm
Protocol: as §1, §2

human red blood cells = assay: Hemolytic activity determination; settings: 2% (v/v) hRBCs, peptide 12.5-200 μg/mL, 37 °C, 1 h, absorbance 540 nm; 1% Triton X-100 = 100%; three independent experiments
Protocol: The hemolytic activities of the peptides were determined against human red blood cells (hRBCs). Briefly, fresh hRBCs anticoagulated with sodium citrate were rinsed with 0.9% sodium chloride by centrifugation (1000× g, 5 min). Then, the cells were diluted to a final concentration of 2% (v/v) and prepared in a clear 96-well polypropylene microtiter plate. Next, the samples were mixed with a series of concentrations of the peptide (12.5, 25, 50, 100 and 200 μg/mL) and incubated at 37 °C for 1 h. After that, the samples were centrifuged (2000× g, 10 min), and the absorbances of the supernatants were measured at 540 nm to evaluate the release of hemoglobin. HRBCs treated with 1% Triton X-100 or 0.9% sodium chloride were taken as 100% and 0% hemolysis, respectively.

Compound | MIC [1] | MIC [2] | MIC [3] | MIC [4] | MIC [5] | MIC [6] | HC10: the concentration of the peptide that causes 10% hemolysis of human red blood cells (human red blood cells)
CC(C)C[C@H](NC(=O)[C@H](C)N)C(=O)N[C@@H](CCCCN)C(=O)N[C@@H](CO)C(=O)N[C@@H](CCC(N)=O)C(=O)N[C@@H](C)C(=O)N[C@@H](CC(C)C)C(=O)N[C@@H](CC(N)=O)C(=O)N[C@@H](C)C(=O)N[C@@H](C)C(=O)N[C@@H](CCCCN)C(=O)N[C@@H](CC(N)=O)C(=O)N[C@@H](Cc1ccccc1)C(=O)N[C@H](C(N)=O)C(C)C [Smp43(21-34)] (H-ALKSQALNAAKNFV-NH2) | > 40 mg/L | > 40 mg/L | > 40 mg/L | > 40 mg/L | > 40 mg/L | > 40 mg/L | > 200 µg/mL
CC[C@H](C)[C@H](N)C(=O)N[C@@H](Cc1c[nH]c2ccccc12)C(=O)N[C@@H](CC(N)=O)C(=O)N[C@@H](CO)C(=O)N[C@@H](CCC(=O)O)C(=O)N1CCC[C@H]1C(=O)N[C@H](C(=O)N[C@@H](CCCCN)C(=O)N[C@@H](C)C(=O)N[C@@H](CC(C)C)C(=O)N[C@@H](CCCCN)C(=O)N[C@@H](CO)C(=O)N[C@@H](CCC(N)=O)C(=O)N[C@@H](C)C(N)=O)C(C)C [Smp43(13-26)] (H-IWNSEPVKALKSQA-NH2) | > 40 mg/L | > 40 mg/L | > 40 mg/L | > 40 mg/L | > 40 mg/L | > 40 mg/L | > 200 µg/mL
CC(C)C[C@H](NC(=O)[C@H](C)NC(=O)[C@H](CCC(N)=O)NC(=O)[C@H](CO)NC(=O)[C@@H](N)CCCCN)C(=O)N[C@@H](CC(N)=O)C(=O)N[C@@H](C)C(=O)N[C@@H](C)C(=O)N[C@@H](CCCCN)C(=O)N[C@@H](CC(N)=O)C(=O)N[C@@H](Cc1ccccc1)C(=O)N[C@H](C(=O)N[C@@H](C)C(=O)N[C@@H](CCC(=O)O)C(N)=O)C(C)C [Smp43(23-36)] (H-KSQALNAAKNFVAE-NH2) | > 40 mg/L | > 40 mg/L | > 40 mg/L | > 40 mg/L | > 40 mg/L | > 40 mg/L | > 200 µg/mL
CC(C)C[C@H](NC(=O)[C@H](C)NC(=O)[C@H](CCC(N)=O)NC(=O)[C@H](CO)NC(=O)[C@H](CCCCN)NC(=O)[C@H](CC(C)C)NC(=O)[C@H](C)NC(=O)[C@H](CCCCN)NC(=O)[C@@H](N)C(C)C)C(=O)N[C@@H](CC(N)=O)C(=O)N[C@@H](C)C(=O)N[C@@H](C)C(=O)N[C@@H](CCCCN)C(=O)N[C@@H](CC(N)=O)C(N)=O [Smp43(19-32)] (H-VKALKSQALNAAKN-NH2) | > 40 mg/L | > 40 mg/L | > 40 mg/L | > 40 mg/L | > 40 mg/L | > 40 mg/L | > 200 µg/mL
CC(C)C[C@H](NC(=O)[C@H](C)NC(=O)[C@H](CCC(N)=O)NC(=O)[C@H](CO)NC(=O)[C@H](CCCCN)NC(=O)[C@H](CC(C)C)NC(=O)[C@H](C)NC(=O)[C@H](CCCCN)NC(=O)[C@@H](NC(=O)[C@@H]1CCCN1C(=O)[C@H](CCC(=O)O)NC(=O)[C@H](CO)NC(=O)[C@@H](N)CC(N)=O)C(C)C)C(=O)N[C@@H](CC(N)=O)C(N)=O [Smp43(15-28)] (H-NSEPVKALKSQALN-NH2) | > 40 mg/L | > 40 mg/L | > 40 mg/L | > 40 mg/L | > 40 mg/L | > 40 mg/L | > 200 µg/mL
CC[C@H](C)[C@H](NC(=O)[C@H](CCCCN)NC(=O)CNC(=O)[C@H](C)NC(=O)[C@@H](N)[C@@H](C)O)C(=O)N[C@@H](Cc1c[nH]c2ccccc12)C(=O)N[C@@H](CC(N)=O)C(=O)N[C@@H](CO)C(=O)N[C@@H](CCC(=O)O)C(=O)N1CCC[C@H]1C(=O)N[C@H](C(=O)N[C@@H](CCCCN)C(=O)N[C@@H](C)C(=O)N[C@@H](CC(C)C)C(N)=O)C(C)C [Smp43(9-22)] (H-TAGKIWNSEPVKAL-NH2) | > 40 mg/L | > 40 mg/L | > 40 mg/L | > 40 mg/L | > 40 mg/L | > 40 mg/L | > 200 µg/mL
CC[C@H](C)[C@H](NC(=O)[C@H](CCCCN)NC(=O)CNC(=O)[C@H](C)NC(=O)[C@@H](NC(=O)[C@H](CCCCN)NC(=O)[C@@H](N)CCCCN)[C@@H](C)O)C(=O)N[C@@H](Cc1c[nH]c2ccccc12)C(=O)N[C@@H](CC(N)=O)C(=O)N[C@@H](CO)C(=O)N[C@@H](CCC(=O)O)C(=O)N1CCC[C@H]1C(=O)N[C@H](C(=O)N[C@@H](CCCCN)C(N)=O)C(C)C [Smp43(7-20)] (H-KKTAGKIWNSEPVK-NH2) | > 40 mg/L | > 40 mg/L | > 40 mg/L | > 40 mg/L | > 40 mg/L | > 40 mg/L | > 200 µg/mL
CC[C@H](C)[C@H](NC(=O)[C@H](CCCCN)NC(=O)[C@H](CCC(=O)O)NC(=O)[C@H](C)NC(=O)[C@@H](NC(=O)[C@H](Cc1ccccc1)NC(=O)[C@H](CC(N)=O)NC(=O)[C@H](CCCCN)NC(=O)[C@H](C)NC(=O)[C@H](C)NC(=O)[C@H](CC(N)=O)NC(=O)[C@H](CC(C)C)NC(=O)[C@H](C)NC(=O)[C@@H](N)CCC(N)=O)C(C)C)C(N)=O [Smp43(25-38)] (H-QALNAAKNFVAEKI-NH2) | > 40 mg/L | > 40 mg/L | > 40 mg/L | > 40 mg/L | > 40 mg/L | > 40 mg/L | > 200 µg/mL
CC[C@H](C)[C@H](NC(=O)[C@H](CCCCN)NC(=O)[C@H](CCC(=O)O)NC(=O)[C@H](C)NC(=O)[C@@H](NC(=O)[C@H](Cc1ccccc1)NC(=O)[C@H](CC(N)=O)NC(=O)[C@H](CCCCN)NC(=O)[C@H](C)NC(=O)[C@H](C)N)C(C)C)C(=O)NCC(=O)N[C@@H](C)C(=O)N[C@H](C(=O)N1CCC[C@H]1C(N)=O)[C@@H](C)O [Smp43(29-42)] (H-AAKNFVAEKIGATP-NH2) | > 40 mg/L | > 40 mg/L | > 40 mg/L | > 40 mg/L | > 40 mg/L | > 40 mg/L | > 200 µg/mL
CC[C@H](C)[C@H](NC(=O)[C@H](CCCCN)NC(=O)CN)C(=O)N[C@@H](Cc1c[nH]c2ccccc12)C(=O)N[C@@H](CC(N)=O)C(=O)N[C@@H](CO)C(=O)N[C@@H](CCC(=O)O)C(=O)N1CCC[C@H]1C(=O)N[C@H](C(=O)N[C@@H](CCCCN)C(=O)N[C@@H](C)C(=O)N[C@@H](CC(C)C)C(=O)N[C@@H](CCCCN)C(=O)N[C@@H](CO)C(N)=O)C(C)C [Smp43(11-24)] (H-GKIWNSEPVKALKS-NH2) | > 40 mg/L | > 40 mg/L | > 40 mg/L | > 40 mg/L | > 40 mg/L | > 40 mg/L | > 200 µg/mL

Source: paper PMC8150835, “An Smp43-Derived Short-Chain α-Helical Peptide Displays a Unique Sequence and Possesses Antimicrobial Activity against Both Gram-Positive and Gram-Negative Bacteria” (Toxins, 2021)
